This passage reports AC50 results from patent US20250171437A1 (Agios Pharmaceuticals,Inc., priority 2022, published 2025).

The assay has as its target T1, human PAH with the R408W mutation (A375 R408W cells) (Homo sapiens, UniProt P00439, R408W).
T1 construct: expressed in transfected cells
T1 sequence (P00439 1-452 R408W): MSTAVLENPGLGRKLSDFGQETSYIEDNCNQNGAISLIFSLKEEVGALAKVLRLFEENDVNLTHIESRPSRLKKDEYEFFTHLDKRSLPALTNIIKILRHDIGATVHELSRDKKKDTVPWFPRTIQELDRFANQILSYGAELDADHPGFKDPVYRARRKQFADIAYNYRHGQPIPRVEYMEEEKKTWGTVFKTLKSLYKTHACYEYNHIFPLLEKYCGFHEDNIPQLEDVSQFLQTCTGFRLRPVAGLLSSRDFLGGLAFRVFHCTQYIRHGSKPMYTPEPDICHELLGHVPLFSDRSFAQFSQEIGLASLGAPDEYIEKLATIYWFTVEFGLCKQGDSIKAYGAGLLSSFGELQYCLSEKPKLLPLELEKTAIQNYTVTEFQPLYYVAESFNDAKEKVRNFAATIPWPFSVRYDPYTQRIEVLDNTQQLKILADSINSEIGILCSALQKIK
Description: Cell Based Phenylalanine Flux Assay. The settings on record: A375 R408W cells; 24 hrs with compound, then 20 μM sepiapterin and 800 μM 13C9,15N-Phenylalanine for 4 hours; 13C-Tyrosine by LC-MS; average where tested multiple times. A digest of the protocol:
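Puromycin-selected A375 line, lentiviral hPAH R408W; cmpd 24 h, 37 °C, 5% CO2, 0.5% DMSO; then 20 μM sepiapterin + 800 μM 13C9,15N-Phe, 4 h; media extracted in 80% MeCN; 13C-Tyr by LC-MS; AC50 from 10-pt curves.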
For the molecule `Cc1ccc2nc([C@@H]3c4nc[nH]c4CCN3C(=O)c3nnc(-c4cnn(C)c4)o3)oc2c1` [Example 103, (S)-(5-(1-methyl-1H-pyrazol-4-yl)-1,3,4-oxadiazol-2-yl)(4-(6-methylbenzo[d]oxazol-2-yl)-6,7-dihydro-1H-imidazo[4,5-c]pyridin-5(4H)-yl)methanone], the half-maximal activity concentration (AC50) was 1 to 5 µM.

For `Cc1ccc2nc([C@H]3c4nc[nH]c4CCN3C(=O)c3nnc(-c4cnn(C)c4)o3)oc2c1` [Example 104, (R)-(5-(1-methyl-1H-pyrazol-4-yl)-1,3,4-oxadiazol-2-yl)(4-(6-methylbenzo[d]oxazol-2-yl)-6,7-dihydro-1H-imidazo[4,5-c]pyridin-5(4H)-yl)methanone], the half-maximal activity concentration (AC50) is ≥ 5 µM.

Take `Cn1ccc(-c2nnc(C(=O)N3CCc4[nH]cnc4[C@@H]3c3nc4cc(F)ccc4o3)o2)n1` [Example 105, (R)-(4-(5-fluorobenzo[d]oxazol-2-yl)-6,7-dihydro-1H-imidazo[4,5-c]pyridin-5(4H)-yl)(5-(1-methyl-1H-pyrazol-3-yl)-1,3,4-oxadiazol-2-yl)methanone]: the AC50 lay within 1 to 5 µM.

Turning to `Cn1ccc(-c2nnc(C(=O)N3CCc4[nH]cnc4[C@H]3c3nc4cc(F)ccc4o3)o2)n1` [Example 106, (S)-(4-(5-fluorobenzo[d]oxazol-2-yl)-6,7-dihydro-1H-imidazo[4,5-c]pyridin-5(4H)-yl)(5-(1-methyl-1H-pyrazol-3-yl)-1,3,4-oxadiazol-2-yl)methanone], the AC50 was 1 to 5 µM.

For `COCc1nc(C(F)F)c(C(=O)N2CCc3[nH]cnc3[C@@H]2c2nc3cc(F)ccc3o2)o1` [Example 109, (R)-(4-(difluoromethyl)-2-(methoxymethyl)oxazol-5-yl)(4-(5-fluorobenzo[d]oxazol-2-yl)-6,7-dihydro-1H-imidazo[4,5-c]pyridin-5(4H)-yl)methanone], the AC50 was 1 to 5 µM.

With `COCc1nc(C(F)F)c(C(=O)N2CCc3[nH]cnc3[C@H]2c2nc3cc(F)ccc3o2)o1` [Example 110, (S)-(4-(difluoromethyl)-2-(methoxymethyl)oxazol-5-yl)(4-(5-fluorobenzo[d]oxazol-2-yl)-6,7-dihydro-1H-imidazo[4,5-c]pyridin-5(4H)-yl)methanone], the AC50 was 0.5 to 1 µM.

On to `Cc1ccc2oc([C@@H]3c4nc[nH]c4CCN3C(=O)c3nnc(-c4cnn(C)c4)o3)nc2c1` [Example 111, (S)-(5-(1-methyl-1H-pyrazol-4-yl)-1,3,4-oxadiazol-2-yl)(4-(5-methylbenzo[d]oxazol-2-yl)-6,7-dihydro-1H-imidazo[4,5-c]pyridin-5(4H)-yl)methanone], for which the AC50 was in the range of 0.5 to 1 µM.

Consider `Cc1ccc2oc([C@H]3c4nc[nH]c4CCN3C(=O)c3nnc(-c4cnn(C)c4)o3)nc2c1` [Example 112, (R)-(5-(1-methyl-1H-pyrazol-4-yl)-1,3,4-oxadiazol-2-yl)(4-(5-methylbenzo[d]oxazol-2-yl)-6,7-dihydro-1H-imidazo[4,5-c]pyridin-5(4H)-yl)methanone], for which the half-maximal activity concentration (AC50) was in the range of 1 to 5 µM.

As for `O=C(c1nnc(-c2ccn(C(F)F)n2)o1)N1CCc2[nH]cnc2[C@H]1c1nc2cc(F)ccc2o1` [Example 113, (S)-(5-(1-(difluoromethyl)-1H-pyrazol-3-yl)-1,3,4-oxadiazol-2-yl)(4-(5-fluorobenzo[d]oxazol-2-yl)-6,7-dihydro-1H-imidazo[4,5-c]pyridin-5(4H)-yl)methanone], the AC50 lay within 1 to 5 µM.

Take `O=C(c1nnc(-c2ccn(C(F)F)n2)o1)N1CCc2[nH]cnc2[C@@H]1c1nc2cc(F)ccc2o1` [Example 114, (R)-(5-(1-(difluoromethyl)-1H-pyrazol-3-yl)-1,3,4-oxadiazol-2-yl)(4-(5-fluorobenzo[d]oxazol-2-yl)-6,7-dihydro-1H-imidazo[4,5-c]pyridin-5(4H)-yl)methanone]: the AC50 lay within 1 to 5 µM.

With `O=C(c1oc(COC(F)(F)F)nc1C(F)F)N1CCc2[nH]cnc2[C@H]1c1nc2cc(F)ccc2o1` [Example 115, (S)-(4-(difluoromethyl)-2-((trifluoromethoxy)methyl)oxazol-5-yl)(4-(5-fluorobenzo[d]oxazol-2-yl)-6,7-dihydro-1H-imidazo[4,5-c]pyridin-5(4H)-yl)methanone], the concentration at half-maximal activity (AC50) fell in the range of 0.5 to 1 µM.

On to `O=C(c1oc(COC(F)(F)F)nc1C(F)F)N1CCc2[nH]cnc2[C@@H]1c1nc2cc(F)ccc2o1` [Example 116, (R)-(4-(difluoromethyl)-2-((trifluoromethoxy)methyl)oxazol-5-yl)(4-(5-fluorobenzo[d]oxazol-2-yl)-6,7-dihydro-1H-imidazo[4,5-c]pyridin-5(4H)-yl)methanone], for which the AC50 was in the range of 1 to 5 µM.

For `Cn1cc(-c2nnc(C(=O)N3CCc4[nH]cnc4[C@@H]3c3nc4cc(F)ccc4o3)o2)c(C(F)(F)F)n1` [Example 117, (R)-(4-(5-fluorobenzo[d]oxazol-2-yl)-6,7-dihydro-1H-imidazo[4,5-c]pyridin-5(4H)-yl)(5-(1-methyl-3-(trifluoromethyl)-1H-pyrazol-4-yl)-1,3,4-oxadiazol-2-yl)methanone], the AC50 was in the range of 1 to 5 µM.

For the molecule `Cn1cc(-c2nnc(C(=O)N3CCc4[nH]cnc4[C@H]3c3nc4cc(F)ccc4o3)o2)c(C(F)(F)F)n1` [Example 118, (S)-(4-(5-fluorobenzo[d]oxazol-2-yl)-6,7-dihydro-1H-imidazo[4,5-c]pyridin-5(4H)-yl)(5-(1-methyl-3-(trifluoromethyl)-1H-pyrazol-4-yl)-1,3,4-oxadiazol-2-yl)methanone], the concentration at half-maximal activity (AC50) was ≤ 0.5 µM.

Take `Cc1cnn(C)c1-c1nnc(C(=O)N2CCc3[nH]cnc3[C@H]2c2nc3cc(F)ccc3o2)o1` [Example 119, (S)-(5-(1,4-dimethyl-1H-pyrazol-5-yl)-1,3,4-oxadiazol-2-yl)(4-(5-fluorobenzo[d]oxazol-2-yl)-6,7-dihydro-1H-imidazo[4,5-c]pyridin-5(4H)-yl)methanone]: the half-maximal activity concentration (AC50) was in the range of 0.5 to 1 µM.

Turning to `Cc1cnn(C)c1-c1nnc(C(=O)N2CCc3[nH]cnc3[C@@H]2c2nc3cc(F)ccc3o2)o1` [Example 120, (R)-(5-(1,4-dimethyl-1H-pyrazol-5-yl)-1,3,4-oxadiazol-2-yl)(4-(5-fluorobenzo[d]oxazol-2-yl)-6,7-dihydro-1H-imidazo[4,5-c]pyridin-5(4H)-yl)methanone], the half-maximal activity concentration (AC50) lay within 1 to 5 µM.

As for `O=C(c1nnc(-c2cc(C(F)(F)F)ccn2)o1)N1CCc2[nH]cnc2[C@@H]1c1nc2cc(F)ccc2o1` [Example 121, [(4R)-4-(5-fluoro-1,3-benzoxazol-2-yl)-1,4,6,7-tetrahydroimidazo[4,5-c]pyridin-5-yl]-[5-[4-(trifluoromethyl)-2-pyridyl]-1,3,4-oxadiazol-2-yl]methanone], the AC50 was 1 to 5 µM.

On to `O=C(c1nnc(-c2cc(C(F)(F)F)ccn2)o1)N1CCc2[nH]cnc2[C@H]1c1nc2cc(F)ccc2o1` [Example 122, [(4S)-4-(5-fluoro-1,3-benzoxazol-2-yl)-1,4,6,7-tetrahydroimidazo[4,5-c]pyridin-5-yl]-[5-[4-(trifluoromethyl)-2-pyridyl]-1,3,4-oxadiazol-2-yl]methanone], for which the AC50 is ≤ 0.5 µM.

In the case of `CC(C)(O)c1nc(Br)c(C(=O)N2CCc3[nH]cnc3[C@@H]2c2nc3cc(F)ccc3o2)o1` [Example 123, (R)-(4-bromo-2-(2-hydroxypropan-2-yl)oxazol-5-yl)(4-(5-fluorobenzo[d]oxazol-2-yl)-6,7-dihydro-1H-imidazo[4,5-c]pyridin-5(4H)-yl)methanone], the half-maximal activity concentration (AC50) lay within 1 to 5 µM.

Take `CC(C)(O)c1nc(Br)c(C(=O)N2CCc3[nH]cnc3[C@H]2c2nc3cc(F)ccc3o2)o1` [Example 124, (S)-(4-bromo-2-(2-hydroxypropan-2-yl)oxazol-5-yl)(4-(5-fluorobenzo[d]oxazol-2-yl)-6,7-dihydro-1H-imidazo[4,5-c]pyridin-5(4H)-yl)methanone]: the AC50 is 0.5 to 1 µM.

`Cc1ccc(-c2nnc(C(=O)N3CCc4[nH]cnc4[C@@H]3c3nc4cc(F)ccc4o3)o2)nc1` [Example 125, (R)-(4-(5-fluorobenzo[d]oxazol-2-yl)-6,7-dihydro-1H-imidazo[4,5-c]pyridin-5(4H)-yl)(5-(5-methylpyridin-2-yl)-1,3,4-oxadiazol-2-yl)methanone]: the AC50 lay in the range of 1 to 5 µM.

Regarding `Cc1ccc(-c2nnc(C(=O)N3CCc4[nH]cnc4[C@H]3c3nc4cc(F)ccc4o3)o2)nc1` [Example 126, (S)-(4-(5-fluorobenzo[d]oxazol-2-yl)-6,7-dihydro-1H-imidazo[4,5-c]pyridin-5(4H)-yl)(5-(5-methylpyridin-2-yl)-1,3,4-oxadiazol-2-yl)methanone], the concentration at half-maximal activity (AC50) lay within 0.5 to 1 µM.

Take `Cn1nc(Cl)cc1C(=O)N1CCc2[nH]cnc2[C@H]1c1nc2cc(F)ccc2o1` [Example 127, (S)-(3-chloro-1-methyl-1H-pyrazol-5-yl)(4-(5-fluorobenzo[d]oxazol-2-yl)-6,7-dihydro-1H-imidazo[4,5-c]pyridin-5(4H)-yl)methanone]: the AC50 is 0.5 to 1 µM.

Turning to `Cn1nc(Cl)cc1C(=O)N1CCc2[nH]cnc2[C@@H]1c1nc2cc(F)ccc2o1` [Example 128, (R)-(3-chloro-1-methyl-1H-pyrazol-5-yl)(4-(5-fluorobenzo[d]oxazol-2-yl)-6,7-dihydro-1H-imidazo[4,5-c]pyridin-5(4H)-yl)methanone], the half-maximal activity concentration (AC50) was in the range of 1 to 5 µM.
